Measured values as given in patent US9517989B2, “2-cycloalkyl resorcinol cannabinergic ligands” (priority 2012, dated 2016).
Read-outs that look alike come from different tables or passages of the source.

How the values were obtained:
CB1 = CB1 (Rattus norvegicus, UniProt P20272); assay: CB1 receptor binding affinity (Ki)
Protocol: Some disclosed compounds were tested for CB1 and CB2 receptor binding affinity (Tables 1, 2, 3, 4, 5, 6). As used herein “binding affinity” is represented by the Ki value. The Ki value is the affinity constant and describes the affinity of the compound for the receptor. […] A detailed description of the methods used to test “binding affinity” of compounds is given in Makriyannis, et al., US 2007, 0135388 and in Papahatjis, et al. J. Med. Chem. (2007) 4048, the content of each of which is hereby incorporated by reference.

CB2 receptor = CB2 receptor (UniProt P47936); assay: CB2 receptor binding affinity (Ki); settings: read-out: CB2 receptor Ki
Protocol: Some disclosed compounds were tested for CB1 and CB2 receptor binding affinity (Tables 1, 2, 3, 4, 5, 6). As used herein “binding affinity” is represented by the Ki value. The Ki value is the affinity constant and describes the affinity of the compound for the receptor. The lower the Ki value, the higher the affinity of the compound for the receptor. A detailed description of the methods used to test “binding affinity” of compounds is given in Makriyannis, et al., US 2007, 0135388 and in Papahatjis, et al. J. Med. Chem. (2007) 4048, the content of each of which is hereby incorporated by reference.

Chain of CB1 (P20272 whole entry): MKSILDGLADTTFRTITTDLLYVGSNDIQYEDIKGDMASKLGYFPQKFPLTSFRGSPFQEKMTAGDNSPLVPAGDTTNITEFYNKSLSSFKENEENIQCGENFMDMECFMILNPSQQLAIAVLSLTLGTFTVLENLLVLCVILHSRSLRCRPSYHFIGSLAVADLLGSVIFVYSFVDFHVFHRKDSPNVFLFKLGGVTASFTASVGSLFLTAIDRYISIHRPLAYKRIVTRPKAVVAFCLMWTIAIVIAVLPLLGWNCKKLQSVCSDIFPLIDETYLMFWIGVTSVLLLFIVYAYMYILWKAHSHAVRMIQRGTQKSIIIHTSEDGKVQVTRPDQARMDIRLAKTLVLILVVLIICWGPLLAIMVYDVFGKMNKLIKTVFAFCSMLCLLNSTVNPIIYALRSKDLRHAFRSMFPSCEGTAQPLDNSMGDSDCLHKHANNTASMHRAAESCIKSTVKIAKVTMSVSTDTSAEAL

Molecule | Ki (CB1; read-out: CB1 receptor Ki) [nM] | Ki (CB2 receptor) [nM] | Ki (CB1) [nM]
2-[(1S,6S)-3-(Hydroxymethyl)-6-(1-methylethenyl)-2-cyclohexen-1-yl]-5-[1-(1,2-cis-hexen-1-yl)-cyclopent-1-yl]resorcinol [Compound 4.5] | 29 | 2.7 | –
C=C(C)[C@H]1CCC(C)=C[C@@H]1c1c(O)cc(CCCCC)cc1O [(+)-CBD, Cannabidiol, reference compound] | – | > 200 | –
C=C(C)[C@@H]1CCC(C)=C[C@H]1c1c(O)cc(CCCCC)cc1O [(−)-CBD, Cannabidiol, reference compound] | – | > 200 | –
C=C(C)[C@H]1CCC(COC(C)=O)=C[C@@H]1c1c(O)cc(C(C)(C)CCCCCC)cc1O [Compound 3.2, 2-[(1S,6S)-3-(Acetoxymethyl)-6-(1-methylethenyl)-2-cyclohexen-1-yl]-5-(1,1-dimethylheptyl)resorcinol] | – | 62 | 69
C=C(C)[C@H]1CCC(COC(C)=O)=C[C@@H]1c1c(O)cc(C2(CCCCCC)CC2)cc1O [Compound 3.3, 2-[(1S,6S)-3-(Acetoxymethyl)-6-(1-methylethenyl)-2-cyclohexen-1-yl]-5-(1-hexyl-cyclopropyl)resorcinol] | – | 105 | 88
C=C(C)[C@H]1CCC(COC(C)=O)=C[C@@H]1c1c(O)cc(C2(CCCCCC)CCCC2)cc1O [Compound 3.4, 2-[(1S,6S)-3-(Acetoxymethyl)-6-(1-methylethenyl)-2-cyclohexen-1-yl]-5-(1-hexyl-1-cyclopentyl)resorcinol] | – | 65 | 277
C=C(C)[C@H]1CCC(COC(C)=O)=C[C@@H]1c1c(O)cc(C2(/C=C\CCCC)CCCC2)cc1O [Compound 3.5, 2-[(1S,6S)-3-(Acetoxymethyl)-6-(1-methylethenyl)-2-cyclohexen-1-yl]-5-[1-(1,2-cis-hexen-1-yl)-cyclopent-1-yl]resorcinol] | – | 12 | 71
C=C(C)[C@H]1CCC(COC(C)=O)=C[C@@H]1c1c(O)cc(C2(CCCCCC)SCCS2)cc1O [Compound 3.6, 2-[(1S,6S)-3-(Acetoxymethyl)-6-(1-methylethenyl)-2-cyclohexen-1-yl]-5-(2-hexyl-1,3-dithiolane-2-yl)resorcinol] | 326 | 97 | –
C=C(C)[C@H]1CCC(COC(C)=O)=C[C@@H]1c1c(O)cc(C2(CCCCCBr)CCCC2)cc1O [Compound 3.7, 2-[(1S,6S)-3-(Acetoxymethyl)-6-(1-methylethenyl)-2-cyclohexen-1-yl]-5-[(5-bromopentyl)cyclopentyl)resorcinol] | – | 25 | 51
C=C(C)[C@H]1CCC(COC(C)=O)=C[C@@H]1c1c(O)cc(C2(CCCCCBr)CCC2)cc1O [Compound 3.8, 2-[(1S,6S)-3-(Acetoxymethyl)-6-(1-methylethenyl)-2-cyclohexen-1-yl]-5-[(5-bromopentyl)cyclobutyl)resorcinol] | – | 35 | 50
C=C(C)[C@H]1CCC(COC(C)=O)=C[C@@H]1c1c(O)cc(C23CC4CC(CC(C4)C2)C3)cc1O [Compound 3.9, 2-[(1S,6S)-3-(Acetoxymethyl)-6-(1-methylethenyl)-2-cyclohexen-1-yl]-5-(1-adamantyl)resorcinol] | – | 135 | 185
C=C(C)[C@H]1CCC(COC(C)=O)=C[C@@H]1c1c(O)cc(C(C)(C)CCCBr)cc1O [Compound 3.10, 2-[(1S,6S)-3-(Acetoxymethyl)-6-(1-methylethenyl)-2-cyclohexen-1-yl]-5-(5-bromo-2-methypentan-2-yl)resorcinol] | – | 14 | 620
C=C(C)[C@H]1CCC(COC(C)=O)=C[C@@H]1c1c(O)cc(C(C)(C)CCCCBr)cc1O [Compound 3.11, 2-[(1S,6S)-3-(Acetoxymethyl)-6-(1-methylethenyl)-2-cyclohexen-1-yl]-5-(6-bromo-2-methylhexan-2-yl)resorcinol] | – | 37 | 191
C=C(C)[C@H]1CCC(COC(C)=O)=C[C@@H]1c1c(O)cc(C(C)(C)CCCCCBr)cc1O [Compound 3.12, 2-[(1S,6S)-3-(Acetoxymethyl)-6-(1-methylethenyl)-2-cyclohexen-1-yl]-5-(7-bromo-2-methylheptan-2-yl)resorcinol] | – | 27 | 29
C=C(C)[C@H]1CCC(COC(C)=O)=C[C@@H]1c1c(O)cc(C2(/C=C\CCCC)CCOCC2)cc1O [Compound 3.14, 2-[(1S,6S)-3-(Acetoxymethyl)-6-(1-methylethenyl)-2-cyclohexen-1-yl]-5-[1-(1,2-cis-hexen-1-yl)-tetrahydro-2H-pyran-4-yl]resorcinol] | – | 38 | 376
C=C(C)[C@H]1CCC(CO)=C[C@@H]1c1c(O)cc(C2(CCCCCBr)CCCC2)cc1O [Compound 4.7, 2-[(1S,6S)-3-(Hydroxymethyl)-6-(1-methylethenyl)-2-cyclohexen-1-yl]-5-[(5-bromopentyl)cyclopentyl)resorcinol] | – | 5 | 16
C=C(C)[C@H]1CCC(CO)=C[C@@H]1c1c(O)cc(C2(CCCCCBr)CCC2)cc1O [Compound 4.8, 2-[(1S,6S)-3-(Hydroxymethyl)-6-(1-methylethenyl)-2-cyclohexen-1-yl]-5-[(5-bromopentyl)cyclobutyl)resorcinol] | – | 11 | 14
C=C(C)[C@H]1CCC(CO)=C[C@@H]1c1c(O)cc(C23CC4CC(CC(C4)C2)C3)cc1O [Compound 4.9, 2-[(1S,6S)-3-(Hydroxymethyl)-6-(1-methylethenyl)-2-cyclohexen-1-yl]-5-(1-adamantyl)resorcinol] | – | 49 | 449
C=C(C)[C@@H]1CCC(COC(C)=O)=C[C@H]1c1c(O)cc(C(C)(C)CCCCCC)cc1O [Compound 31.2, 2-[(1R,6R)-3-(Acetoxymethyl)-6-(1-methylethenyl)-2-cyclohexen-1-yl]-5-(1,1-dimethylheptyl)resorcinol] | – | 375 | 221
C=C(C)[C@@H]1CCC(COC(C)=O)=C[C@H]1c1c(O)cc(C(C)(C)CCCCCCBr)cc1O [Compound 31.13, 2-[(1R,6R)-3-(Acetoxymethyl)-6-(1-methylethenyl)-2-cyclohexen-1-yl]-5-(8-bromo-2-methyloct-2-yl)resorcinol] | – | 171 | 205
C=C(C)[C@H]1CCC(COC(C)=O)=C[C@@H]1c1c(O)cc(C2(CCCCCC#N)CCC2)cc1O [Compound 33, 2-[(1S,6S)-3-(Acetoxymethyl)-6-(1-methylethenyl)-2-cyclohexen-1-yl]-5-[(5-cyanopentyl)cyclobutyl)resorcinol] | – | 15 | 65
C=C(C)[C@H]1CCC(CO)=C[C@@H]1c1c(O)cc(C2(CCCCCN=[N+]=[N-])CCC2)cc1O [Compound 37, 2-[(1S,6S)-3-(Hydroxymethyl)-6-(1-methylethenyl)-2-cyclohexen-1-yl]-5-[(5-azidopentyl)cyclobutyl)resorcinol] | – | 7.2 | 22
CCCCCc1cc(O)c([C@H]2C=C(C)[C@H]3C[C@@H]2C3(C)C)c(O)c1 [Compound 40.1, (+)-2-[(1R,4S,5S)-2,6,6-trimethylbicyclo[3.1.1]hept-2-en-4-yl]-5-pentyl-resorcinol, reference compound] | – | 47 | 671
CCCCCCC1(c2cc(O)c([C@H]3C=C(C)[C@H]4C[C@@H]3C4(C)C)c(O)c2)CCCC1 [Compound 40.4, (+)-2-[(1R,4S,5S)-2,6,6-trimethylbicylco[3.1.1]hept-2-en-4-yl]-5-(1-hexyl-1-cyclopentyl)resorcinol] | – | 17 | 23
CCCC/C=C\C1(c2cc(O)c([C@H]3C=C(C)[C@H]4C[C@@H]3C4(C)C)c(O)c2)CCCC1 [Compound 40.5, (+)-2-[(1R,4S,5S)-2,6,6-trimethylbicylco[3.1.1]hept-2-en-4-yl]-5-[1-(1,2-cis-hexen-1-yl)-cyclopent-1-yl]resorcinol] | – | 6.6 | 13.4
CC1=C[C@H](c2c(O)cc(C3(CCCCCBr)CCCC3)cc2O)[C@@H]2C[C@H]1C2(C)C [Compound 40.7, (+)-2-[(1R,4S,5S)-2,6,6-trimethylbicylco[3.1.1]hept-2-en-4-yl]-5-[(5-bromopentyl)cyclopentyl]resorcinol] | – | 4.7 | 6.4
CC1=C[C@H](c2c(O)cc(C3(CCCCCBr)CCC3)cc2O)[C@@H]2C[C@H]1C2(C)C [Compound 40.8, (+)-2-[(1R,4S,5S)-2,6,6-trimethylbicylco[3.1.1]hept-2-en-4-yl]-5-[(5-bromopentyl)cyclobutyl]resorcinol] | – | 2.1 | 1
CC1=C[C@H](c2c(O)cc(C3(CCCCBr)CCC3)cc2O)[C@@H]2C[C@H]1C2(C)C [Compound 40.15, (+)-2-[(1R,4S,5S)-2,6,6-trimethylbicylco[3.1.1]hept-2-en-4-yl]-5-[(5-bromobutyl)cyclobutyl]resorcinol] | – | 1.9 | 11
CCCCCc1cc(O)c([C@@H]2C=C(C)[C@@H]3C[C@H]2C3(C)C)c(O)c1 [Compound 43.1, (−)-2-[(1S,4R,5R)-2,6,6-trimethylbicyclo[3.1.1]hept-2-en-4-yl]-5-pentyl-resorcinol, reference compound] | – | 565 | 837
CCCC/C=C\C1(c2cc(O)c([C@@H]3C=C(C)[C@@H]4C[C@H]3C4(C)C)c(O)c2)CCCC1 [Compound 43.5, (−)-2-[(1S,4R,5R)-2,6,6-trimethylbicyclo[3.1.1]hept-2-en-4-yl]-5-[1-(1,2-cis-hexen-1-yl)-cycolpentyl-1-yl]resorcinol] | – | 29 | 45
